Results published in patent US4499299A, “Pharmaceutically active phenylcarboxylic acid derivatives” (ICI Americas Inc., priority 1981, dated 1985).

These compounds were tested on isolated guinea pig trachea contracted by leukotriene C4 or D4 (SRS-A) (assay: Antagonism of leukotriene C4 or D4 induced contractions of isolated guinea pig trachea (SRS-A antagonist test)). Settings: inhibition of contraction induced by 8×10^-9 M LTD4 or LTC4, isolated guinea pig tracheal strip, indomethacin 5×10^-6 M present.
Format: cell-based
Method: Male Hartley guinea pigs weighing 300-500 g are killed and exsanguinated. The trachea is immediately resected, cleaned of adhering connective tissue and cut into a spiral strip measuring approximately 3 to 5 mm ×20 to 25 mm. The strip is mounted in a 10 ml jacketed tissue bath by tying one end to a tissue hook and the opposite end to a Grass FT03C force-displacement transducer connected to an 8-channel Beckman Polygraph for recording contractile or relaxant responses. The tissue is bathed in modified Krebs' solution (37.5° C.) of the following composition (mM): NaCl, 119; KCl, 4.6; CaCl2, 1.8; MgCl2, 0.5; NaHCO3, 24.9; NaH2 PO4, 1.0; glucose, 11.1. Indomethacin, a cyclooxygenase inhibitor, is also present in a concentration of 5×10^-6 M. The tissue baths are constantly aerated with 95% O2 and 5% CO2. Tissues are placed under a passive tension of 2 g and allowed a 50 minute equilibration period before beginning experiments. This technique is standard for studying the effects of drugs on airway smooth muscle (Krell, R. D., J. Pharmacol. Exp. Ther. 211: 436, 1979; Kneussel, M. P. and Richardson, J. B., J. Appl. Physiol. 45: 307, 1978; Fleisch, J. H. and Calkins, P. J., J. Appl. Physiol. 41: 62, 1976).
Tissues are set up in groups of eight--four are used as time/vehicle controls and the remaining four for experimental compounds. No fewer than 4 tissues are used for each test compound. All tissues are exposed to 8×10^-9 M LTD4, following the 50 minute equilibration period, and the response recorded. This concentration of LTD4 is that which produces a contraction equal to about 70-80% of the maximal effect of the agonist in this tissue. The LTD4 is washed out for 20-25 minutes and the procedure repeated twice to insure that reproducible responses are being obtained with LTD4. LTC4, at a concentration of 8×10^-9 M, may be substituted for LTD4 in the same procedure.
Once tissue reproducibility has been established test compounds are added to four baths following the […] washout period. After a 10 minute incubation with test compound or vehicle 8×10^-9 M LT's are added and the response recorded. Percent inhibition by the test compound or percent change in vehicle controls is calculated, for each tissue, according to the following equation: % inhibition=100 multiplied by (mg tension increase of preceding response minus mg tension increase in presence of compound) divided by mg tension increase of preceding response. The means of the percent changes for vehicle controls and test compound are calculated and evaluated for significant differences by Students' t-test for unpaired data. Tissues exposed to agents were retested for responsiveness to LTD4 or C4 following a 25 minute washout period. […]

| Structure (SMILES) | activity as an SRS-A antagonist |
| --- | --- |
| CCCc1c(OCc2ccc(C(=O)O)cc2OC)ccc(C(C)=O)c1O [Example 4, 3-Methoxy-4-(4-acetyl-3-hydroxy-2-propylphenoxy)methylbenzoic acid] | Particularly active |
| CCCc1c(OCc2ccc(OCC(=O)O)cc2)ccc(C(C)=O)c1O [Example 7, 4-(4-Acetyl-3-hydroxy-2-propylphenoxy)methylphenoxyacetic acid] | Particularly active |
| CCCc1c(OCc2ccc(/C=C/C(=O)O)cc2)ccc(C(C)=O)c1O [Example 16, 4-(4-Acetyl-3-hydroxy-2-propylphenoxy)methylcinnamic acid] | Particularly active |
| CCCc1c(OCc2ccc(C=CC(=O)O)cc2OC)ccc(C(C)=O)c1O [Example 22, 3-Methoxy-4-(4-acetyl-3-hydroxy-2-propylphenoxy)methylcinnamic acid] | Particularly active |
